According to patent US8435978B2, “Substituted sulfonamide compounds” (Gruenenthal GmbH, priority 2006, dated 2013):

Experiments:
human B1R receptor = target: T1, human B1R receptor (Homo sapiens, UniProt P46663); assay: Functional study on the bradykinin receptor 1 (B1R), FLIPR Ca2+ assay, hB1R cells; type: cell-based; details: CHO-K1, test substance 10 μM, agonist Lys-Des-Arg9-bradykinin 0.5 nM, % inhibition compared with the maximum achievable inhibition, read-out: B1R Antagonism, human [10 μM] % Inhibition
T1 construct: host or cells: CHO K1 cells (Chinese hamster ovary), stably transfected
T1 sequence (P46663 1-353): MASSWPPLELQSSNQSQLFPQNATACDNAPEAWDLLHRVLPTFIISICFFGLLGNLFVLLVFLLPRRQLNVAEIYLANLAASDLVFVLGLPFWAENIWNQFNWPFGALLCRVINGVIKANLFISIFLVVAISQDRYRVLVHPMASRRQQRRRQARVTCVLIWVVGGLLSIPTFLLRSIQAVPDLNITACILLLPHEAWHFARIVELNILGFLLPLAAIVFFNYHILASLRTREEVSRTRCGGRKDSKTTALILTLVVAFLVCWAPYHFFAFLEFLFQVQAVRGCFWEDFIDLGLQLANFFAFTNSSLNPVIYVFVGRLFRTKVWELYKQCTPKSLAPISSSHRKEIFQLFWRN
Procedure, shortened: (§1)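 CHO K1 cells stably expressing human or rat B1R were loaded with Fluo-4 and read on a FLIPR (ex 488/em 540 nm, peak fluorescence). Test compounds at 10 μM were added first, then after 10 min agonist: Lys-Des-Arg9-bradykinin 0.5 nM for hB1R, Des-Arg9-bradykinin 100 nM for rB1R; % inhibition versus maximum inhibition.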

B1R receptor of the rat = target: T2, B1R receptor of the rat (Rattus norvegicus, UniProt P97583); assay: Functional study on the bradykinin receptor 1 (B1R), FLIPR Ca2+ assay, rB1R cells; type: cell-based; details: CHO-K1, test substance 10 μM, agonist Des-Arg9-bradykinin 100 nM, % inhibition compared with the maximum achievable inhibition, read-out: B1R Antagonism, rat [10 μM] % Inhibition
T2 construct: host or cells: CHO K1 cells (Chinese hamster ovary), stably transfected
T2 sequence (P97583 1-337): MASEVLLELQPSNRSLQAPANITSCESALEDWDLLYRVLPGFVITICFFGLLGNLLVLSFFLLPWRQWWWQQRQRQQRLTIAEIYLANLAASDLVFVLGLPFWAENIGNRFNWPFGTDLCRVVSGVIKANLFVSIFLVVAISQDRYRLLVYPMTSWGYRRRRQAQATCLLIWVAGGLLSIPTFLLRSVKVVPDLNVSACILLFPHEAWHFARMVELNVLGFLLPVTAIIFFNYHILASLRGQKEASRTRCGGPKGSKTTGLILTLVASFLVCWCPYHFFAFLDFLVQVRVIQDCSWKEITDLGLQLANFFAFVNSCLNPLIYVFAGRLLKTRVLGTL
Procedure, shortened: as §1

Structure (SMILES) | inhibition at 10 µM (human B1R receptor) | inhibition at 10 µM (B1R receptor of the rat)
COc1cc(C)c(S(=O)(=O)N2CCCCC2COCC(=O)Nc2cccnc2N2CCOCC2)c(C)c1 (stereo not drawn) [Example 395, 2-((1-(4-methoxy-2,6-dimethylphenylsulfonyl)piperidin-2-yl)methoxy)-N-(2-morpholinopyridin-3-yl)acetamide] | 12.6% | 100%
COc1cc(C)c(S(=O)(=O)N2CCCCC2COCC(=O)Nc2ccc(N3CCOCC3)nc2)c(C)c1 (stereo not drawn) [Example 396, 2-((1-(4-methoxy-2,6-dimethylphenylsulfonyl)piperidin-2-yl)methoxy)-N-(6-morpholinopyridin-3-yl)acetamide] | 24.7% | 80.6%
COc1cc(C)c(S(=O)(=O)N2CCCCC2COCC(=O)N2CCC(c3nc4cc(C)ccc4[nH]3)CC2)c(C)c1 (stereo not drawn) [Example 397, 2-((1-(4-methoxy-2,6-dimethylphenylsulfonyl)piperidin-2-yl)methoxy)-1-(4-(5-methyl-1H-benzo[d]imidazol-2-yl)piperidin-1-yl)ethanone] | 97.2% | 101%
COc1cc(C)c(S(=O)(=O)N2CCCCC2COCC(=O)N2CCCC2c2ccc(N(C)C)cc2)c(C)c1 (stereo not drawn) [Example 398, 1-(2-(4-(dimethylamino)phenyl)pyrrolidin-1-yl)-2-((1-(4-methoxy-2,6-dimethylphenylsulfonyl)piperidin-2-yl)methoxy)ethanone] | 59.8% | 98%
COc1cc(C)c(S(=O)(=O)N2CCCCC2COCC(=O)N2CCCC2CN2CCCCC2)c(C)c1 (stereo not drawn) [Example 399, 2-((1-(4-methoxy-2,6-dimethylphenylsulfonyl)piperidin-2-yl)methoxy)-1-(2-(piperidin-1-ylmethyl)pyrrolidin-1-yl)ethanone] | 93% | 102%
COc1cc(C)c(S(=O)(=O)N2CCCCC2COCC(=O)N2CCCCCC2c2ccc(N(C)C)cc2)c(C)c1 (stereo not drawn) [Example 400, 1-(2-(4-(dimethylamino)phenyl)azepan-1-yl)-2-((1-(4-methoxy-2,6-dimethylphenylsulfonyl)piperidin-2-yl)methoxy)ethanone] | 62% | 102%
COc1cc(C)c(S(=O)(=O)N2CCCCC2COCC(=O)NCCN2CCN(Cc3ccccc3)CC2)c(C)c1 (stereo not drawn) [Example 401, N-(2-(4-benzylpiperazin-1-yl)ethyl)-2-((1-(4-methoxy-2,6-dimethylphenylsulfonyl)piperidin-2-yl)methoxy)acetamide] | 90.8% | 95.6%
COc1cc(C)c(S(=O)(=O)N2CCCCC2COCC(=O)N2CCN(c3nc(-c4ccccc4)cs3)CC2)c(C)c1 (stereo not drawn) [Example 402, 2-((1-(4-methoxy-2,6-dimethylphenylsulfonyl)piperidin-2-yl)methoxy)-1-(4-(4-phenylthiazol-2-yl)piperazin-1-yl)ethanone] | 47.1% | 101%
Cc1ccc(N2CCN(C(=O)COCC3CCCCN3S(=O)(=O)c3c(Cl)cccc3Cl)CC2)cc1C (stereo not drawn) [Example 403, 2-((1-(2,6-dichlorophenylsulfonyl)piperidin-2-yl)methoxy)-1-(4-(3,4-dimethylphenyl)piperazin-1-yl)ethanone] | 101% | 100%
O=C(COCC1CCCCN1S(=O)(=O)c1c(Cl)cccc1Cl)N1CCN(c2ccc(Cl)c(Cl)c2)CC1 (stereo not drawn) [Example 404, 1-(4-(3,4-dichlorophenyl)piperazin-1-yl)-2-((1-(2,6-dichlorophenylsulfonyl)piperidin-2-yl)methoxy)ethanone] | 55.1% | 98.5%
O=C(COCC1CCCCN1S(=O)(=O)c1c(Cl)cccc1Cl)N1CCN(Cc2ccc(Cl)c(Cl)c2)CC1 (stereo not drawn) [Example 405, 1-(4-(3,4-dichlorobenzyl)piperazin-1-yl)-2-((1-(2,6-dichlorophenylsulfonyl)piperidin-2-yl)methoxy)ethanone] | 98.6% | 100%
O=C(COCC1CCCCN1S(=O)(=O)c1c(Cl)cccc1Cl)N1CCN(Cc2ccc(Br)cc2)CC1 (stereo not drawn) [Example 406, 1-(4-(4-bromobenzyl)piperazin-1-yl)-2-((1-(2,6-dichlorophenylsulfonyl)piperidin-2-yl)methoxy)ethanone] | 103% | 100%
O=C(COCC1CCCCN1S(=O)(=O)c1c(Cl)cccc1Cl)N1CCN(Cc2ccc(Cl)cc2)CC1 (stereo not drawn) [Example 407, 1-(4-(4-chlorobenzyl)piperazin-1-yl)-2-((1-(2,6-dichlorophenylsulfonyl)piperidin-2-yl)methoxy)ethanone] | 102% | 99%
Cc1ccc(CN2CCN(C(=O)COCC3CCCCN3S(=O)(=O)c3c(Cl)cccc3Cl)CC2)cc1 (stereo not drawn) [Example 408, 2-((1-(2,6-dichlorophenylsulfonyl)piperidin-2-yl)methoxy)-1-(4-(4-methylbenzyl)piperazin-1-yl)ethanone] | 102% | 99.8%
COc1cc(C)c(S(=O)(=O)N2CCCCC2COCC(=O)Nc2ccc(N3CCCC3)cc2)c(C)c1 (stereo not drawn) [Example 409, 2-((1-(4-methoxy-2,6-dimethylphenylsulfonyl)piperidin-2-yl)methoxy)-N-(4-(pyrrolidin-1-yl)phenyl)acetamide] | 28.1% | 81.4%
COc1cc(C)c(S(=O)(=O)N2CCCCC2COCC(=O)N2CCN(CCC#N)CC2)c(C)c1 (stereo not drawn) [Example 410, 3-(4-(2-((1-(4-methoxy-2,6-dimethylphenylsulfonyl)piperidin-2-yl)methoxy)acetyl)piperazin-1-yl)propanenitrile] | 102% | 103%
COc1cc(C)c(S(=O)(=O)N2CCCCC2COCC(=O)NCCCN2CCN(Cc3ccccc3)CC2)c(C)c1 (stereo not drawn) [Example 411, N-(3-(4-benzylpiperazin-1-yl)propyl)-2-((1-(4-methoxy-2,6-dimethylphenylsulfonyl)piperidin-2-yl)methoxy)acetamide] | 101% | 100%
CCN1CCN(CCCNC(=O)COCC2CCCCN2S(=O)(=O)c2c(C)cc(OC)cc2C)CC1 (stereo not drawn) [Example 412, N-(3-(4-ethylpiperazin-1-yl)propyl)-2-((1-(4-methoxy-2,6-dimethylphenylsulfonyl)piperidin-2-yl)methoxy)acetamide] | 101% | 103%
COc1cc(C)c(S(=O)(=O)N2CCCCC2COCC(=O)NCCCN2CCCCC2)c(C)c1 (stereo not drawn) [Example 413, 2-((1-(4-methoxy-2,6-dimethylphenylsulfonyl)piperidin-2-yl)methoxy)-N-(3-(piperidin-1-yl)propyl)acetamide] | 99.9% | 103%
COc1cc(C)c(S(=O)(=O)N2CCCCC2COCC(=O)NCC2CCN(Cc3ccccc3)C2)c(C)c1 (stereo not drawn) [Example 414, N-((1-benzylpyrrolidin-3-yl)methyl)-2-((1-(4-methoxy-2,6-dimethylphenylsulfonyl)piperidin-2-yl)methoxy)acetamide] | 101% | 100%
COc1cc(C)c(S(=O)(=O)N2CCCCC2COCC(=O)NCC2CCCN(Cc3ccccc3)C2)c(C)c1 (stereo not drawn) [Example 415, N-((1-benzylpiperidin-3-yl)methyl)-2-((1-(4-methoxy-2,6-dimethylphenylsulfonyl)piperidin-2-yl)methoxy)acetamide] | 99.2% | 97.5%
COc1cc(C)c(S(=O)(=O)N2CCCCC2COCC(=O)NCCn2nccc2C)c(C)c1 (stereo not drawn) [Example 416, 2-((1-(4-methoxy-2,6-dimethylphenylsulfonyl)piperidin-2-yl)methoxy)-N-(2-(5-methyl-1H-pyrazol-1-yl)ethyl)acetamide] | 50.2% | 101%
COc1cc(C)c(S(=O)(=O)N2CCCCC2COCC(=O)Nc2ccc(CCc3nc4ccccc4n3C)cc2)c(C)c1 (stereo not drawn) [Example 417, 2-((1-(4-methoxy-2,6-dimethylphenylsulfonyl)piperidin-2-yl)methoxy)-N-(4-(2-(1-methyl-1H-benzo[d]imidazol-2-yl)ethyl)phenyl)acetamide] | 96.2% | 103%
COc1cc(C)c(S(=O)(=O)N2CCCCC2COCC(=O)Nc2cccc(CN3CCCCC3)c2)c(C)c1 (stereo not drawn) [Example 418, 2-((1-(4-methoxy-2,6-dimethylphenylsulfonyl)piperidin-2-yl)methoxy)-N-(3-(piperidin-1-ylmethyl)phenyl)acetamide] | 101% | 104%
